Assay results reported in US7985773B2 (American Sterilizer Company, priority 2004, dated 2011).
Values joined by “and” are separate entries in the source; they are usually repeats but may differ in a detail not shown here. Equal entries are not always repeated.

System: Serratia marcescens ATCC 14756
Assay: Residual activity testing procedure on pigskin
Type: cell-based
Conditions: for Average Log Reduction: average of two series; for log reduction values and antimicrobial activity (in words): compositions of Table V, additive at 0.5 parts per 100 parts; for Log Value: log of colony forming units remaining; for Log Value / Log Reduction: single series; for antimicrobial activity (in words): additives of Table II in the Table I base; for antimicrobial activity (in words) / Average Series: FIG. 1; for Average Series: average log reduction of all four series
Description: The gram negative organism was grown for approximately 24 hours at 30° C. and then suspended in Butterfields Buffer to a count of 1×10^8. The pigskins were prepared according to the following standard of procedure. Pigskin hides are collected on the date of slaughter and processed on the same day by removing adipose tissue and thoroughly cleaning the hide. Both of these processes are accomplished by spraying both sides of the pig hide with a high pressure washer. No soap or detergents are used at any time during the processing of pig hides for laboratory use. After cleaning and de-fatting, pigskins are placed in water and frozen at the farm from which they were harvested. When required for laboratory testing, a representative procures the hides and thaws them for laboratory manipulation. In the laboratory, these hides are cut into manageable pieces with a scalpel and coarse hair removed with animal grooming clippers. Disposable razors are further employed to create a smooth surface without negatively affecting the skin surface. These pieces are then sterilized by Gamma irradiation and kept frozen until use in a study. Testing circles were then punched out of the pigskins and glued to a phenolic cap. The testing samples were placed in a 30° C. oven to equilibrate for at least 20 minutes. Each skin was treated with 150 μl of test product and rubbed for 30 seconds as a pair, skin to skin. The skins were allowed to dry for 30 seconds and then the test product was reapplied four times in the same manner. The skins were allowed to dry in a slightly opened hood for 15 minutes. After drying the skins were inoculated with 31 μl of the Serratia marcescens inoculum, as prepared above, rubbed for 15 seconds, and sampled after three minutes. To sample, a sterile 3.5 cm diameter cylinder is placed, lip side down, over the pigskin on the cap. Enough pressure is applied to the cylinder to prevent any leakage upon the addition of an appropriate volume of liquid sampling solution to the cylinder. The skin is then debrided, using a sterile policeman, for 30 seconds by rubbing the surface of the skin with the flat edge of the policeman with enough pressure to remove any microorganisms that might be on the surface. Two mL of the sampling solution are removed using a sterile pipet and are utilized for preparing serial dilutions and aerobic plate counts to establish the number of Colony Forming Units remaining.

[1] = additive at 0.5 parts by weight per 100 parts total composition in the Table I base, FIG. 2
[2] = additive at 0.5 parts by weight per 100 parts total composition in the Table I base
[3] = additive at the active % listed in Table III in the Table I base
[4] = additive at the active % listed in Table III in the Table I base, pigskin residual activity

| Compound | Average Log Reduction [1] | Log Value [2] | Log Reduction [2] | Average Series [3] | further results |
| --- | --- | --- | --- | --- | --- |
| CCCCCCCCCCCCCCCCCCCCCC[N+](C)(C)Cc1ccccc1.[Cl-] [Behenalkonium chloride, Behenalkonium Chloride] | 4.41 | 1.60 and 1.78 | 4.50 and 4.32 | – | log reduction values and antimicrobial activity (in words): excellent log reduction values |
| CCCCCCCCCCCCCCCCCCCCCC[N+](C)(C)C.[Cl-] [Behentrimonium chloride] | 0.33 | 5.78 and 5.76 | 0.32 and 0.34 | – | – |
| CCCCCCCCCCCCCCCCCCCCCC[N+](C)(C)C.COS(=O)(=O)[O-] [Behentrimonium methosulfate] | 5.25 | – | – | 5.39 | antimicrobial activity (in words): enhanced antimicrobial activity; log reduction values and antimicrobial activity (in words): excellent log reduction values |
| CC(C)(C)CC(C)(C)c1ccc(OCCOCC[N+](C)(C)Cc2ccccc2)cc1 [Benzethonium Chloride, Benzethonium chloride] | – | – | – | 0.17 | – |
| CCCCCCCCCCCCCCCC[N+](C)(C)C.[Cl-] [Cetrimonium chloride] | 1.24 | 4.87 and 4.85 | 1.23 and 1.25 | – | – |
| C[N+](C)(C)CCCNC(=O)C=Cc1ccccc1.[Cl-] [Cinnamidopropyl trimethylammonium chloride] | 0.05 | 5.98 and 6.12 | 0.12 and −0.02 | – | – |
| CCCCCCCCCC(=O)OCC(O)CO (stereo not shown) [Glyceryl caprate] | – | 5.17 and 5.19 | – | – | – |
| CCCCCCCCCCCC(=O)OCC(O)CO (stereo not shown) [Glyceryl monolaurate] | – | – | – | −0.21 | – |
| CCCCCCCCCCCCCCCCCCCCCC(=O)NCCC[N+](C)(C)CCO.[Cl-] [Hydroxyethyl behenamidopropyldimonium chloride] | 0.63 | – | – | – | – |
| COC(=O)c1ccc(O)cc1 [Methyl paraben] | – | – | – | 0.03 | – |
| CCCCCCCC/C=C\CCCCCCCC[N+](C)(C)Cc1ccccc1.[Cl-] [Olealkonium chloride, Olealkonium Chloride] | 0.31 | 5.76 and 5.81 | 0.34 and 0.29 | – | – |
| Cc1cc(O)cc(C)c1Cl [PCMX] | – | – | – | 0.16 | Average Log Reduction [4]: 0.06 and 0.26 |
| OCCOc1ccccc1 [Phenoxyethanol, Phenoxyethanol (ethylene glycol phenyl ether)] | – | – | – | 3.39 | antimicrobial activity (in words): enhanced antimicrobial activity |
| CCCOC(=O)c1ccc(O)cc1 [Propyl paraben] | – | – | – | 0.40 | – |
| CCCCCCCCCCCCCCCCCC[N+](C)(C)Cc1ccccc1.[Cl-] [Stearalkonium chloride] | 0.25 | 5.93 and 5.77 | 0.17 and 0.33 | – | – |
| CC(O)C(=O)O.CCCCCCCCCCCCCCCCCC(=O)NCCCN(C)C [Stearamidopropyl dimethylamine lactate] | – | 6.22 and 6.05 | – | – | – |
| Oc1cc(Cl)ccc1Oc1ccc(Cl)cc1Cl [Triclosan] | – | – | – | −0.04 | – |
| Babbassuamidopropalkonium Chloride | 0.35 | 5.82 and 5.68 | 0.28 and 0.42 | – | – |
| Cocoamidopropyl PG dimonium chloride | – | – | – | −0.04 | Average Log Reduction [4]: −0.13 and 0.04 |
| IPEG-3 Dioleylamidoethylmonium methosulfate | 0.27 | 5.84 and 5.81 | 0.26 and 0.29 | – | – |
| Isostearyamidopropyl morpholine lactate | −0.09 | 6.17 and 6.20 | −0.07 and −0.10 | – | – |
| Quaternium 26 | −0.07 | 6.20 and 6.13 | −0.11 and −0.03 | – | – |
| Sodium Coco PG-Dimonium chloride phosphate | 0.40 | 5.69 and 5.71 | 0.41 and 0.39 | – | – |
